Test results as given in ChEMBL document CHEMBL1155444, “(Bis)urea and (bis)thiourea inhibitors of lysine-specific demethylase 1 as epigenetic modulators” (J Med Chem, 2010).
Active and inactive are the calls of the source. The calls are words filed in the database; no cut-off is given here.

Legend:
Type in all cases: cell-based
Conditions in all cases: HCT-116
[1] = target: Lysine-specific histone demethylase 1A (Homo sapiens) (UniProt O60341); test: Inhibition of LSD1 in human HCT116 cells assessed as increase in cellular histone 3 dimethyllysine 9 level treated at increasing concentration after 48 hrs
[2] = target: Lysine-specific histone demethylase 1A (Homo sapiens) (UniProt O60341); test: Inhibition of LSD1 in human HCT116 cells assessed as increase in cellular histone 3 dimethyllysine 4 level treated at increasing concentration after 48 hrs
[3] = target: Lysine-specific histone demethylase 1A (Homo sapiens) (UniProt O60341); test: Inhibition of LSD1 in human HCT116 cells assessed as increase in cellular histone 3 methyllysine 4 level treated at increasing concentration after 48 hrs

Structure (SMILES)	inhibition [1]	inhibition [2]	inhibition [3]
N=C(NCCCNCCCCCCCNCCCNC(=N)NC(=N)NCCC(c1ccccc1)c1ccccc1)NC(=N)NCCC(c1ccccc1)c1ccccc1	inactive	Active	Active
C/N=C(\NC)NCCCNCCCNCCCN/C(=N/C)NC	inactive	Active	Active
